Reference: paper PMC8064871 (International Journal of Biological Macromolecules, 2021)

Target: T1, human chymotrypsin-C (CTRC) (Homo sapiens, UniProt Q99895)
T1 sequence (Q99895 30-268): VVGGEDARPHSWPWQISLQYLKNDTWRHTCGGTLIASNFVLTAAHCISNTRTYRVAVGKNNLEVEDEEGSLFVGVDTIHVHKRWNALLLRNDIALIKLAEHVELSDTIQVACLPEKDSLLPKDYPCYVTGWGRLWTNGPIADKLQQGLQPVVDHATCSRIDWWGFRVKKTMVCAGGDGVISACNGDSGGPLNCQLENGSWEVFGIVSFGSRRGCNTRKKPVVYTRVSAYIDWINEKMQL
Test: In vitro assessment of human chymotrypsin C
Format: biochemical
Conditions: 0, 1, 10, 100 µM; 30 min at 37 °C; OD405

SMILES: CC1=CC(=O)c2ccccc2C1=O [Entry 1, 2-Methyl-1,4-naphthoquinone (vitamin K3), reference compound]
- inhibition of human CTRC activity (in words): selectively inhibit SARS-CoV-2 and SARS-CoV 3CL^pro, rather than human CTRC
